Laboratory results from patent publication US8513437B2, “Pyrrolidino-1,4-naphthoquinone deriviatives and their use for treating malignancies and cardiovascular diseases” (Ben Gurion University of the Negev Research and Development …, priority 2004, dated 2013).
Entries after “also recorded” stand apart in the source; their conditions may differ. Read-outs that look alike come from different tables or passages of the source.

Legend:
cardiomyocytes = assay: Cardiomyocyte viability (XTT) following incubation with EH48; assay type: cell-based, rat; conditions: cardiomyocytes starved 16-18 h, compound 24 h, XTT 4 h, FIG. 5
Procedure: (§1) The cell viability was examined using the XTT method following kit instructions (Biological Industry, Israel). The assay is based on the ability of metabolic active cells to reduce the tetrazolium salt XTT to orange colored compound of formazan. The dye formed is water soluble and the dye intensity can be read with spectrophotometer at 450-500 nm. The intensity of the dye is proportional to the number of metabolic active cells.
(§2) The viability of the cells was measured as described above. Briefly, cells were starved for 16-18 h followed by incubation with the compound of formula II (EH48) for 24 h and incubation with XTT for an other 4 h. The assay is based on the ability of metabolic active cells to reduce the tetrazolium salt XTT to orange colored compound of formazan. The intensity of the dye is proportional to the number of metabolically active cells.

[1] = system: cardiomyocytes in rat heart; assay: Cardiomyocyte proliferation following direct injection in-vivo (PCNA staining); conditions: direct injection into rat heart, 0.5, 5 and 50 microM, three days, versus saline
Procedure: Proliferation of cardiomyocytes was evaluated in-vivo following direct injection of EH48 in three concentrations (0.5, 5 and 50 microM) into rat heart. Three days after injections rats were sacrificed and the hearts were fixed with formaldehyde 4%. Slides of 5 micron were stained with the DNA specific marker PCNA. Only cells with morphology of cardiomyocytes (large cells with striation) that expressed the PCNA in the nucleus (brown staining) were considered as proliferate cardiomyocytes (FIG. 6A, arrows). The number of stained cells in each treatment was evaluated compared to control (saline injected) rats (FIG. 6B).

[2] = system: primary cardiomyocytes derived from neonatal rats; assay: Cell viability (XTT) of cardiomyocytes; assay type: cell-based, rat; conditions: for injury of cardiomyocytes at concentrations killing VSM cells: cardiomyocytes versus VSM cells; for IC50: 24 h incubation with compound, then XTT 4 h, read-out: ID50 Cardiomyocytes
Procedure: (§3) Three main cell types of the cardiovascular system were evaluated: primary cardiomyocytes derived from neonatal rats primary vascular smooth muscle (VSM) cells derived from rat aorta and human umbilical vein endothelial cells. Furthermore, human colon carcinoma HT29 cells and BL6-8 melanoma cells were evaluated as representative cancer cells. The cells were prepared as described previously in Etzion S. et al.: JMCC 33 (2001) 1321-30; Granot Y. et al.: JBC 268 (1993) 9564-9; the ATCC (the Global Bioresource Center™); and Assa-Kunik et al.: J. Immunol. 171 (2003) 2945-52.
as §1
The viability of the cells was measured as described above. Briefly, cells were incubated with the compounds for 24 h followed by incubation with XTT for 4 h. The assay is based on the ability of metabolic active cells to reduce the tetrazolium salt XTT to orange colored compound of formazan. The intensity of the dye is proportional to the number of metabolically active cells. The concentration at which 50% cells remain viable, ID50, is shown in Table 1 for several compounds of the invention.

ERKs [3] = assay: Western immunoblot, ERKs phosphorylation in VSM cells; assay type: cell-based, rat; conditions: 0.5-20 μM, 20 min, 37° C., FIG. 1A
Procedure: (§4) Stimulation of ERKs and p38-MAPKs with compounds of the invention was characterized in VSM cells and cardiomyocytes. […] As a positive control for ERKs activation, the cells were incubated with 10^−7M EGF for 5 minutes. […] Therefore, this compound and other derivates may be used as selective compounds to inhibit or stimulate one of the members in the MAPKs-signaling pathway.

p38-MAPK [4] = assay: Western immunoblot, p38-MAPK phosphorylation in VSM cells; assay type: cell-based, rat; conditions: 0.5-20 μM, 20 min, 37° C., FIG. 1A
Procedure: as §4

ERKs [5] = assay: Western immunoblot, ERKs phosphorylation in cardiomyocytes; assay type: cell-based, rat; conditions: 0.5-10 μM, 20 min, 37° C., FIG. 1B
Procedure: (§5) The effect of the compounds of formula I on ERKs and p38-MAPK was checked in cardiomycetes. […] Stimulation of the MAPKs members by compounds of the invention was compared with the stimulation by the growth factor Ang (Angiotensin II, 10 nM, 10 min), which is known as MAPKs stimulator in cardiomyocytes. […] ERKs and p38 were related to the total amount of ERKs proteins in the sample. […] As explained, the ERKs signaling pathway participate in the cell survival and proliferation. Administering the compounds stimulating this pathways after myocardial infarction may accelerate cell survival of the cardiomyoctes; alternatively, said compounds may be administered as a preventing drug before the injury occurs in risk cases.

p38-MAPK [6] = assay: Western immunoblot, p38-MAPK phosphorylation in cardiomyocytes; assay type: cell-based, rat; conditions: 0.5-10 μM, 20 min, 37° C., FIG. 1B
Procedure: as §5

[7] = system: HT29 human colon carcinoma cells; assay: Apoptosis of HT29 cells (DNA fragmentation, PI staining); assay type: cell-based; conditions: 48 h incubation
Procedure: The various cell types were incubated with a compound of formula I (0.3-25 μM) for 24-48 h. Untreated cells were served as control. After trypsinization, cells were centrifuged for 5 min, 1500 g and resuspended in DMEM medium contains 10% FCS. Sample of the cells (25 μl) was added to 2 μl mixture of (5 μg/ml) ethidium bromide and (5 μg/ml) acridine orange in PBS. Sample of the stained cells was examined under fluorescent microscope. Ethidium bromide binds to the DNA of damaged cells and stains it orange, while acridine orange stains the nucleus in green. Apoptotic cells appear as nuclei with orange staining of fragmented DNA.
HT29 cells, either untreated or treated 48 h with a compound of formula I (25 μM), after trypsinization, were collected and centrifuged for 5 min, 800 g. The pellet was resuspended with PBS and centrifuged again. 60 μl of PBS was added to the pellet followed by addition of 360 μl of ice-cold 80% ethanol and incubating overnight at −20° C. The cells were thawed on ice and centrifuged for 5 min 800 g 4° C. […] Analysis was carried out by fluorescence-activated flow cytometer (FACSscan).
Apoptosis was evaluated following incubation of 48 h with compound TW 69 using DNA fragmentation method (ethidium bromide staining) and PI (propidium iodide) staining assay, as described above. […]

[8] = system: primary vascular smooth muscle (VSM) cells derived from rat aorta; assay: Cell viability (XTT) of VSM cells; assay type: cell-based; conditions: 24 h incubation with compound, then XTT 4 h; read-out: ID50 VSM cells
Procedure: as §3, §1
as §2, with “incubated with the compounds” for “starved”, “24” for “16-18”, “with” for “with the compound of formula II (EH48) for 24 h and incubation with”, “for” for “for an other”, “cells. […]” for “cells.”

[9] = system: human umbilical vein endothelial cells; assay: Cell viability (XTT) of endothelial cells; assay type: cell-based; conditions: 24 h incubation with compound, then XTT 4 h; read-out: ID50 Endothelial cells
Procedure: as §3, §1
as §2, with “incubated with the compounds” for “starved”, “24” for “16-18”, “with” for “with the compound of formula II (EH48) for 24 h and incubation with”, “for” for “for an other”, “cells. […]” for “cells.”

[10] = system: HT29 human colon carcinoma cells; assay: Viability of HT29 human colon carcinoma cells; assay type: cell-based; conditions: 24 h incubation; read-out: ID50 HT29-colon carcinoma
Procedure: as §3, §1
HT29 human carcinoma cells were incubated for 24 h with compounds of the invention.

ERKs [11] = conditions: HT29 cells, 5-25 μM, 20 min to 4 h, FIG. 3A
P38 pathway = assay: Western immunoblot, p38 phosphorylation in BL6-8 melanoma cells; assay type: cell-based; conditions: FIG. 3B
STAT3 = assay: Western immunoblot, STAT3 phosphorylation in VSM cells; conditions: VSM cells activated with AVP, FIG. 2
Procedure: (§6) Confluent cell monolayers were growth-arrested in serum-free medium for 24 h prior to treatment with the compounds in this patent. Cells were washed twice with medium, scraped, resuspended in lysis buffer (10% glycerol, 25 mM NaCl, 0.1% Triton X-100, 50 mM NaF, 10 mM Na-pyrophosphate, 2 mM EGTA, 2 mM DTT, 20 mM p-nitro-phenylphosphate, 25 mM Tris-HCl, 2 mM Na2VO4, 10 μM PMSF, 10 μg/ml Leupeptin), and the lysate was centrifuged at 14,000 rpm for 20 min. Samples were separated by SDS-polyacrylamide gel electrophoresis, transferred to nitrocellulose membrane, and blocked for 1 h at room temperature with 5% nonfat milk in TBS-T buffer (20 mM Tris, 500 mM NaCl, and 0.01% Tween 20). The membrane was then incubated overnight at 4° C. with an appropriate dilution of anti-phospho-ERKs or anti-total ERK, anti-phospho-p38 or anti-phospho-JNK, followed by incubation for 1 h with the appropriate horseradish peroxidase-conjugated secondary antibody. The immunoblot signal was visualized through enhanced chemiluminescence.

ERKs survival pathway = assay: Western immunoblot, ERKs phosphorylation in BL6-8 melanoma cells; conditions: FIG. 3B
Procedure: as §6
The cells were starved for 24 h in serum free medium, incubated with the selected compound (5-25 μM) for 20 min to 4 h (dependent on the compound examined), 37° C., harvested, centrifuged and suspended in the lysis buffer. The MAPKs stimulation was estimated using the western immunoblot analysis as described above.

| Compound | XTT dye intensity (cell survival and viability) (cardiomyocytes) | survival and proliferation of cardiomyocytes in-vivo (PCNA-stained cells) [1] | injury of cardiomyocytes at concentrations killing VSM cells [2] | stimulation of ERKs signaling (ERKs [3]) | stimulation of p38-MAPK signaling (p38-MAPK [4]) | stimulation of ERKs signaling pathway (ERKs [5]) | stimulation of p38-MAPK signaling pathway (p38-MAPK [6]) | acceleration of apoptotic response [7] [%] | IC50 [2] [nM] | IC50 [8] [nM] | IC50 [9] [nM] | IC50 [10] [nM] | stimulation of ERKs signaling pathway (ERKs [11]) | stimulation of P38 pathway (P38 pathway) | inhibition of STAT3 phosphorylation (STAT3) | stimulation of ERKs survival pathway (ERKs survival pathway) |
| --- | --- | --- | --- | --- | --- | --- | --- | --- | --- | --- | --- | --- | --- | --- | --- | --- |
| COC(=O)[C@@H]1CCCN1C1=C(Cl)C(=O)c2ccccc2C1=O [EH48, 2-chloro-3-(L-prolinemethyl ester)-1,4-naphthoquinone] | increase in cell survival and viability; also recorded: XTT elevation | positive in-vivo effect |  |  |  |  |  |  |  |  |  |  |  |  |  |  |
| Cc1ccc(NC2=C(Cl)C(=O)c3ccccc3C2=O)cc1 [TW69, 2-chloro-3-(p-methylphenylamino)-1,4-naphthoquinone] |  |  | did not injure the cardiomyocytes at concentrations killing VSM cells | stimulate both ERKs and p38-MAPKs signaling | stimulate both ERKs and p38-MAPKs signaling | stimulate mainly the ERKs signaling pathway; also recorded: induced the formation of phosphorylated ERKs protein | without significantly influencing the p38-MAPK signaling pathway; also recorded: without inducing the formation of phosphorylated p38 protein | 30 |  |  |  |  |  |  |  |  |
| Cc1ccc(NC2=C(N3CCCC3)C(=O)c3ccccc3C2=O)cc1 [TW85, 2-pyrrolidine-3-(p-methylphenylamino)-1,4-naphthoquinone] |  |  |  |  |  | stimulates the ERKs signaling pathway; also recorded: induced the formation of phosphorylated ERKs protein | not the p38-MAPK signaling pathway; also recorded: without inducing the formation of phosphorylated p38 protein |  | > 20000 | 3600 | 800 | 3500 |  |  |  |  |
| O=C1C(Nc2ccc(O)cc2)=C(N2CCCC2)C(=O)c2ccccc21 [TW96, 2-pyrrolidine-3-(p-hydroxy-phenylamino)-1,4-naphthoquinone] |  |  | did not injure the cardiomyocytes at concentrations killing VSM cells |  | stimulates mostly the P38-MAPK |  |  |  | 400 | 200 | 500 | 500 | without significantly influencing the ERKs signaling pathway | specifically stimulate the P38 pathway | strong inhibitor of STAT3 phosphorylation | without stimulating the ERKs survival pathway |
